Test results reported in patent publication EP4029502A1, “PYRAZOLINE-DERIVED COMPOUND (ENFLICOXIB) FOR USE IN THE PREVENTION AND/OR TREATMENT OF PAIN AND INFLAMMATION ASSOCIATED TO SURGERY IN MAMMALS” (Ecuphar N.V., priority 2021, dated 2022).
Read-outs that look alike come from different tables or passages of the source.

Legend:
[1] = test system: dogs undergoing orthopaedic surgery; test: Non-inferiority field study of postoperative pain and inflammation after orthopaedic surgery, meloxicam-controlled (SFGCMPS, VAS); format: in vivo
From the text: The study was a non-inferiority, multicentre, prospective, parallel-controlled, randomized and blinded field study.
Thirty-two dogs of different breed, age and weight presenting at the veterinary practice for orthopaedic surgery were included.
Agents with analgesic effect were permitted as premedication. However, intraoperative or postoperative analgesia were not permitted.
For each dog the study lasted twelve days. Two days before surgery, all animals were weighed and underwent a thorough physical examination with clinical pathology to confirm the good health status of the animals before inclusion. Day 0 (D0) was the day dogs underwent surgery and t0h corresponded to the end of surgery (extubation). The physical examination was repeated on D0, before surgery (t-2h) and before dispatch (t8h) and again at t24h (D1) and t168 (D7) post-surgery. Clinical assessments of pain and inflammation were blindly performed on D0, before surgery (t-2h) and again at t1.5h, t3h, t5h, t8h, t24h (D1) and t168h (D7) post-surgery. The global efficacy of treatments was assessed on D7. From day D1 to day D7 post-surgery, the owners assessed the dog's wellbeing.
The primary endpoint for efficacy comprises the sum of scores for the SFGCMPS scale, which was assessed at different time points by the Investigator.
From day D1 to D7, owners daily assessed the dogs' wellbeing using scales for: • Demeanour (0=normal; 1=slightly modified; 2=moderately modified; 3=markedly modified and 4=severely modified). • Mobility (0=normal; 1=slightly impaired; 2=moderately impaired; 3=markedly impaired and 4=severely impaired). • Quality of analgesia as very satisfactory (=1); satisfactory (=2); not very satisfactory (=3); not at all satisfactory (=4).
Blood samples were collected from all animals before inclusion (≤ D-2), for routine pre-surgery blood profile. Potential adverse effects related to the products were also recorded.
Statistical Analysis was performed by use of commercially available software. All analyses used a two-sided significance level α = 0.05. […]

[2] = test system: dogs undergoing experimental orthopaedic surgery; test: Control of postoperative pain and inflammation after experimental orthopaedic (knee) surgery, Maquet Modified Procedure; format: in vivo, Beagle dogs
Protocol: The study was performed with 6 clinically healthy Beagle dogs with similar age and weight that were experimentally subjected to knee surgery (repair of cranial cruciate ligament rupture). […] All surgeries were conducted under the same preoperative, intraoperative and postoperative protocols and performed by the same surgeon. A highly standardized surgical technique, Maquet Modified Procedure (MMP) (12) was implemented.
For each dog the study lasted 17 days, including a 7-day acclimatization period. On day D-1 (approximately 24h before the intervention) the five dogs in the TG received a single oral dose (8 mg/kg) of the TP, the one dog in the CG received a single subcutaneous dose (0.1 mg/kg) of the RP. […] On day D0 all dogs underwent knee surgery in the right knee. From day D1 up to day D10 dogs were closely examined and signs of pain and discomfort were blindly evaluated and rated using the Short Form of the Glasgow Composite Pain Scale (SFGCPS) ranging from 0 to 24 (13 and http://www.newmetrica.com/cmps/). On day D-1 dogs were also examined to rule out signs of pain or discomfort.

[3] = test system: dogs undergoing soft tissue surgery; format: in vivo; parameters: Vocalization (SFGCMPS average value) / Attention to wound (SFGCMPS average value) / Mobility (SFGCMPS average value) / Demeanour (SFGCMPS average value) / Posture/Activity (SFGCMPS average value) / Total SFGCMPS (average value): scale not given here
From the text: The study was a single centre, prospective, parallel-controlled, randomized and blinded pilot field trial with a negative (Placebo) control to evaluate the efficacy of E-6087 in dogs undergoing elective soft tissue surgery.
Twenty dogs (17 females and 3 males) were included in the study. Dogs were of different breeds or crossbreed, ages from 3 months to 7 years and weights from 4 to 34 kg. All dogs were clinically healthy other than the condition causing the animal to go under surgery.
Two days before surgery animals were weighed, a detailed physical examination was performed, and blood samples were collected for routine haematology and biochemistry to confirm the good health status of the animals before inclusion.
Dogs were randomly allocated to receive either E-6087 or Placebo as oral tablets. E-6087 and Placebo tablets were similar (same appearance and packaging), therefore treatment administration, clinical examinations and blood sample analysis was always blind.
E-6087 was administered at the dose of 8 mg/kg on day D-1, approximately 24h before surgery scheduled time, before the first meal of the day. Placebo tablets were administered following the same posology.
Surgeries were performed in the morning, on day D0 by the Investigator (Surgeon). All surgeries were performed under the same anaesthesia protocol. Premedication was performed with medetomidine and morphine both at 0.1 ml/10 kg followed by anaesthesia maintained with Tiletamine/Zolazepam (Zoletil®). Local anaesthesia was not permitted. At the end of surgery, antibiotic therapy was administered to all dogs following the post-operative protocol stablished: amoxicillin (trihydrate) at 15 mg of amoxicillin/kg bw in a single dose.
Clinical assessments of postoperative pain and inflammation were done by the Investigator (Examining Veterinarian) using the SFGCMPS (13). Visual Analog Scales (VAS) were also used to assess pain at rest and under palpation as well as the level of inflammation.
On D0 at approximately 2 hours before surgery the Examining Veterinarian performed a physical examination and the clinical assessment of pain and inflammation to determine the basal scores. After surgery pain and inflammation were assessed at six examination time points: t1.5h, t3h, t5h (±30 minutes), t8h (±1hour), t24h and t168 (D7), when t0h corresponded to the end of surgery (extubation).
Clinical assessment of pain and inflammation included assessments of vocalization, attention to wound area, mobility, reaction to pressure at the wound area, general behaviour as well as activity and posture as per SFGCMPS. In addition, pain at rest and after palpation as well as the level of inflammation were assessed at the same time points by VAS ranging from 0 (no pain) to 100 (severe pain manifested by vocalization, aggression, and refusal to allow examination) and from 0 (no inflammation) to 100 (major inflammation as local heat, redness or paresis of the affected area).
Statistical Analysis was performed by use of commercially available software (SigmaPlot for Windows version 13.0). The area under the curve (AUC) was calculated for observable pain during the initial 8 and 24 hours, and it was considered as the primary efficacy variable. All analyses applied a two-sided significance level α = 0.05 and a power β = 80%. Demographic and baseline data were compared using the Mann-Whitney U test. Gender was compared with the Fisher exact probability test in contingency tables. Efficacy variables were analysed by repeated measures ANOVA.

[4] = 1.5h after surgery, 8 mg/kg oral on D-1
[5] = 3h after surgery, 8 mg/kg oral on D-1
[6] = 5h after surgery, 8 mg/kg oral on D-1
[7] = 8h after surgery, 8 mg/kg oral on D-1
[8] = 24h after surgery, 8 mg/kg oral on D-1

## NS(=O)(=O)c1ccc(N2N=C(C(F)(F)F)CC2c2ccc(F)cc2F)cc1 (centres unmarked) [E-6087, enflicoxib]
[1]; at 3h, p= 0.025
  level of inflammation (VAS 0-100) compared with meloxicam: lower values
[1]; initial 24 hours, TG: E-6087 8 mg/kg oral on D-1, CG: meloxicam 0.2 mg/kg s.c. or i.v. on D0, then 0.1 mg/kg oral daily D1 to D7, p=0.7962
  SFGCMPS (AUC), average value: 95.50±57.70
[1]; no statistically significant differences at any time point
  SFGCMPS at each time point compared with CG: most values were lower
[2]; 10 days follow up period
  need of rescue analgesia: None of the animals needed rescue analgesia
[2]; single oral dose 8 mg/kg on D-1
  potential adverse effects related to product administration: No potential adverse effects related to product administration were recorded
[2]; single oral dose 8 mg/kg on D-1, SFGCPS 0-24, D1 to D10
  analgesic agent in the postoperative period after orthopaedic surgery: effective
[3]; 8 mg/kg oral on D-1, not statistically significant (p=0.266)
  values of AUC for the first 24 hours after surgery compared with Placebo: almost half
[3]; 8 mg/kg oral on D-1, p=0,033
  AUC for the first 8 hours compared with Placebo: statistically significant lower values
[3]; [4]
  Attention to wound (SFGCMPS average value): 0
  Demeanour (SFGCMPS average value): 0.83
  Mobility (SFGCMPS average value): 0.33
  Posture/Activity (SFGCMPS average value): 0.17
  Pressure on wound (SFGCMPS average value): 0.33
  Total SFGCMPS (average value): 1.92
  Vocalization (SFGCMPS average value): 0.25
[3]; [5]
  Attention to wound (SFGCMPS average value): 0.08
  Demeanour (SFGCMPS average value): 0.50
  Mobility (SFGCMPS average value): 0
  Posture/Activity (SFGCMPS average value): 0.08
  Pressure on wound (SFGCMPS average value): 0.42
  Total SFGCMPS (average value): 1.33
  Vocalization (SFGCMPS average value): 0.25
[3]; 3 hours after surgery, p=0.021
  level of inflammation (VAS 0-100) compared with Placebo: Placebo was greater than for the group treated with E-6087
[3]; [6]
  Attention to wound (SFGCMPS average value): 0.08
  Demeanour (SFGCMPS average value): 0.17
  Mobility (SFGCMPS average value): 0
  Posture/Activity (SFGCMPS average value): 0
  Pressure on wound (SFGCMPS average value): 0.50
  Total SFGCMPS (average value): 0.75
  Vocalization (SFGCMPS average value): 0
[3]; [7]
  Attention to wound (SFGCMPS average value): 0
  Demeanour (SFGCMPS average value): 0
  Mobility (SFGCMPS average value): 0
  Posture/Activity (SFGCMPS average value): 0
  Pressure on wound (SFGCMPS average value): 0.67
  Total SFGCMPS (average value): 0.50
  Vocalization (SFGCMPS average value): 0
[3]; [8]
  Attention to wound (SFGCMPS average value): 0
  Demeanour (SFGCMPS average value): 0
  Mobility (SFGCMPS average value): 0
  Posture/Activity (SFGCMPS average value): 0
  Pressure on wound (SFGCMPS average value): 0.50
  Total SFGCMPS (average value): 0.50
  Vocalization (SFGCMPS average value): 0
[3]; first 24 hours after surgery, 8 mg/kg oral on D-1, primary efficacy variable
  AUC0→24h (SFGCMPS, observable pain): 16,0±15
[3]; significant only at 1.5, 3 and 5 hours (p <0,001, 0.007 and 0.042)
  Total scores for SFGCMPS at each time point compared with Placebo: always lower
[3]; single dose of 8 mg/kg
  alleviating pain and inflammation after soft tissue surgery: effective
